Structures can show the parent of a compound that is named as a salt.
Legend:
[1] = Oral bioavailability of estramustine in dogs (AUC of estramustine after oral dosing); type: in vivo, Beagle dogs; conditions: oral water solution, dose equivalent to 140 mg estramustine phosphate, fasting; for AUC of estramustine, Mean ± S.D.: four Beagle dogs
Protocol: Different formulations were administered orally to groups of four Beagle dogs. The dose was equivalent to 140 mg of estramustine phosphate. The animals were fasting before dosing and given 50 ml 0.01 M hydrochloric acid after the dose. Blood samples were analysed for estramustine by means of gas chromatography. (Andersson, S-B, et al., Acta Pharm.Suec. 19, 1 (1982).
The following formulations were used: […]
1. Water solution of estramustine phosphate disodium salt
2. Water solution of compound No. 6:2
3. Water solution of compound No. 4:2

[2] = Interactions with calcium ions (observation of precipitate in acetate buffer pH=4.5 after adding equimolar calcium ions); type: physicochemical; conditions: for Observation: pH=4.5 buffer, observed for 3 h
Protocol: Solution A: 0.3 mole/l calcium diethanesulfonate. Calcium carbonate ([…], 15 mmole) is dissolved by adding a 1.0 mole/l ethanesulfonic acid solution until a stable pH=5.3 is obtained. The solution is diluted with water to 50 ml.
Solution B: 0.03 mole/l calcium diethanesulfonate. One part of solution A is diluted with 9 parts of water.
Solution C: 0.05 mole/l sodium acetate/acetic acid buffer with pH=4.5. Glacial acetic acid (3.0 g, 0.05 mole) is dissolved in 800 ml of water, titrated with 1 mole/l sodium hydroxide solution to pH=4.5 and diluted to 1 l.
The test compound is dissolved in 50 ml of solution C. A clear solution is obtained in a few minutes. After 5 minutes an equimolar amount of calcium ions are added by adding 1 ml of solution A or B. The mixture is observed for 3 h.

Row | Structure (SMILES) | AUC of estramustine ([1]; Dog No. 8729) | AUC of estramustine ([1]; Dog No. 8731) | AUC of estramustine ([1]; Dog No. 8735) | AUC of estramustine ([1]; Dog No. 8742) | AUC of estramustine, Mean ± S.D. [1] | Observation ([2]; 178 mg, 0.3 mmole compound, solution A, 0.3 mmole calcium ions) | AUC of estramustine ([1]; Dog No. 8727) | AUC of estramustine ([1]; Dog No. 8733) | Observation ([2]; 16 mg, 0.03 mmole compound, solution B, 0.03 mmole calcium ions) | precipitate in the presence of calcium ions (summary) ([2]; novel compounds at concentrations 10 times higher than those of estramustine phosphate disodium salt and calcium ions giving immediate undissolved calcium salt) | AUC of estramustine, Mean ± S.D. ([1]; listed as Etramustine phosphate disodium salt)
1 | CNCC(=O)O[C@H]1CC[C@H]2[C@@H]3CCc4cc(OC(=O)N(CCCl)CCCl)ccc4[C@H]3CC[C@]12C [Compound No. 4:2, 17-Estramustine N-methylaminoacetate, ethanesulfonate] | 94.0 ng/mlxhours | 79.8 ng/mlxhours | 2.6 ng/mlxhours | 153.4 ng/mlxhours | 82.6 ± 62.0 ng/mlxhours | – | – | – | – | – | –
2 | C[C@]12CC[C@@H]3c4ccc(OC(=O)N(CCCl)CCCl)cc4CC[C@H]3[C@@H]1CC[C@@H]2OC(=O)CN [Compound No. 6:2, 17-estramustine aminoacetate, methanesulfonate] | 140 ng/mlxhours | 45.8 ng/mlxhours | – | – | 118 ± 59 ng/mlxhours | Remains clear | 100 ng/mlxhours | 184.8 ng/mlxhours | – | – | –
3 | C[C@]12CC[C@@H]3c4ccc(OC(=O)N(CCCl)CCCl)cc4CC[C@H]3[C@@H]1CC[C@@H]2OP(=O)(O)O [Estramustine phosphate disodium salt, 17-estramustine dihydrogen phosphate ester, reference compound] | 16.4 ng/mlxhours | 34.0 ng/mlxhours | – | – | – | – | 147 ng/mlxhours | 19.5 ng/mlxhours | Becomes unclear | immediate formation of an undissolved estramustine phosphate calcium salt | 54.3 ± 62.4 ng/mlxhours

Source: US5036062A, “Novel esters” (Pharmacia AB, priority 1988, dated 1991)
